Assays:
Lasiodiplodia theobromae [1] = test: Growth inhibition of Lasiodiplodia theobromae assessed as concentration required for inhibition of mycelial growth incubated for 15 min followed by compound washout measured after 7 days in absence of surfactant APSA 80; assay type: functional
Lasiodiplodia theobromae [2] = test: Growth inhibition of Lasiodiplodia theobromae assessed as concentration required for inhibition of mycelial growth incubated for 15 min followed by compound washout measured after 7 days in presence of surfactant APSA 80; assay type: functional
Fusarium verticillioides [3] = test: Antifungal activity against Fusarium verticillioides infected Cavendish banana fruit assessed as reduction in crown rot incubated for 15 min followed by compound washout measured after 3 weeks in presence of surfactant APSA 80 relative to control; assay type: functional; design: scale not given: the % may be the effect or the level left; settings: pooled result: one value given for 4 cell lines, strains, targets or settings
Fusarium verticillioides [4] = test: Antifungal activity against Fusarium verticillioides infected Cavendish banana fruit assessed as reduction in crown rot incubated for 15 min followed by compound washout measured after 3 weeks in absence of surfactant APSA 80 relative to control; assay type: functional; design: scale not given: the % may be the effect or the level left; settings: pooled result: one value given for 4 cell lines, strains, targets or settings
Fusarium verticillioides [5] = test: Antifungal activity against Fusarium verticillioides infected Cavendish banana fruit assessed as reduction in crown rot incubated for 15 min followed by compound washout measured after 2 weeks in presence of surfactant APSA 80 relative to control; assay type: functional; design: scale not given: the % may be the effect or the level left
Colletotrichum musae [6] = test: Antifungal activity against Colletotrichum musae infected Cavendish banana fruit assessed as reduction in crown rot incubated for 15 min followed by compound washout measured after 2 weeks in presence of surfactant APSA 80 relative to control; assay type: functional; design: scale not given: the % may be the effect or the level left
Thielaviopsis paradoxa [7] = test: Antifungal activity against Ceratocystis paradoxa infected Cavendish banana fruit assessed as reduction in crown rot incubated for 15 min followed by compound washout measured after 2 weeks in presence of surfactant APSA 80 relative to control; assay type: functional; design: scale not given: the % may be the effect or the level left
Lasiodiplodia theobromae [8] = test: Antifungal activity against Lasiodiplodia theobromae infected Cavendish banana fruit assessed as reduction in crown rot incubated for 15 min followed by compound washout measured after 2 weeks in presence of surfactant APSA 80 relative to control; assay type: functional; design: scale not given: the % may be the effect or the level left
Fusarium verticillioides [9] = test: Antifungal activity against Fusarium verticillioides infected Cavendish banana fruit assessed as reduction in crown rot incubated for 15 min followed by compound washout measured after 2 weeks in absence of surfactant APSA 80 relative to control; assay type: functional; design: scale not given: the % may be the effect or the level left
Colletotrichum musae [10] = test: Antifungal activity against Colletotrichum musae infected Cavendish banana fruit assessed as reduction in crown rot incubated for 15 min followed by compound washout measured after 2 weeks in absence of surfactant APSA 80 relative to control; assay type: functional; design: scale not given: the % may be the effect or the level left
Thielaviopsis paradoxa [11] = test: Antifungal activity against Ceratocystis paradoxa infected Cavendish banana fruit assessed as reduction in crown rot incubated for 15 min followed by compound washout measured after 2 weeks in absence of surfactant APSA 80 relative to control; assay type: functional; design: scale not given: the % may be the effect or the level left
Lasiodiplodia theobromae [12] = test: Antifungal activity against Lasiodiplodia theobromae infected Cavendish banana fruit assessed as reduction in crown rot incubated for 15 min followed by compound washout measured after 2 weeks in absence of surfactant APSA 80 relative to control; assay type: functional; design: scale not given: the % may be the effect or the level left
Fusarium verticillioides [13] = test: Antifungal activity against Fusarium verticillioides infected Cavendish banana fruit assessed as reduction in crown rot incubated for 15 min followed by compound washout measured after 1 week in presence of surfactant APSA 80 relative to control; assay type: functional; design: scale not given: the % may be the effect or the level left
Colletotrichum musae [14] = test: Antifungal activity against Colletotrichum musae infected Cavendish banana fruit assessed as reduction in crown rot incubated for 15 min followed by compound washout measured after 1 week in presence of surfactant APSA 80 relative to control; assay type: functional; design: scale not given: the % may be the effect or the level left
Thielaviopsis paradoxa [15] = test: Antifungal activity against Ceratocystis paradoxa infected Cavendish banana fruit assessed as reduction in crown rot incubated for 15 min followed by compound washout measured after 1 week in presence of surfactant APSA 80 relative to control; assay type: functional; design: scale not given: the % may be the effect or the level left
Lasiodiplodia theobromae [16] = test: Antifungal activity against Lasiodiplodia theobromae infected Cavendish banana fruit assessed as reduction in crown rot incubated for 15 min followed by compound washout measured after 1 week in presence of surfactant APSA 80 relative to control; assay type: functional; design: scale not given: the % may be the effect or the level left
Fusarium verticillioides [17] = test: Antifungal activity against Fusarium verticillioides infected Cavendish banana fruit assessed as reduction in crown rot incubated for 15 min followed by compound washout measured after 1 week in absence of surfactant APSA 80 relative to control; assay type: functional; design: scale not given: the % may be the effect or the level left
Colletotrichum musae [18] = test: Antifungal activity against Colletotrichum musae infected Cavendish banana fruit assessed as reduction in crown rot incubated for 15 min followed by compound washout measured after 1 week in absence of surfactant APSA 80 relative to control; assay type: functional; design: scale not given: the % may be the effect or the level left
Thielaviopsis paradoxa [19] = test: Antifungal activity against Ceratocystis paradoxa infected Cavendish banana fruit assessed as reduction in crown rot incubated for 15 min followed by compound washout measured after 1 week in absence of surfactant APSA 80 relative to control; assay type: functional; design: scale not given: the % may be the effect or the level left
Lasiodiplodia theobromae [20] = test: Antifungal activity against Lasiodiplodia theobromae infected Cavendish banana fruit assessed as reduction in crown rot incubated for 15 min followed by compound washout measured after 1 week in absence of surfactant APSA 80 relative to control; assay type: functional; design: scale not given: the % may be the effect or the level left
Fusarium verticillioides [21] = test: Antifungal activity against Fusarium verticillioides assessed as reduction in colony diameter at 10 to 160 g/l incubated for 15 min followed by compound washout measured after 7 days in absence of surfactant APSA 80 relative to control; assay type: functional; design: scale not given: the % may be the effect or the level left
Colletotrichum musae [22] = test: Antifungal activity against Colletotrichum musae assessed as reduction in colony diameter at 10 to 160 g/l incubated for 15 min followed by compound washout measured after 7 days in absence of surfactant APSA 80 relative to control; assay type: functional; design: scale not given: the % may be the effect or the level left
Thielaviopsis paradoxa [23] = test: Antifungal activity against Ceratocystis paradoxa assessed as reduction in colony diameter at 10 to 160 g/l incubated for 15 min followed by compound washout measured after 7 days in absence of surfactant APSA 80 relative to control; assay type: functional; design: scale not given: the % may be the effect or the level left
Lasiodiplodia theobromae [24] = test: Antifungal activity against Lasiodiplodia theobromae assessed as reduction in colony diameter at 10 to 160 g/l incubated for 15 min followed by compound washout measured after 7 days in absence of surfactant APSA 80 relative to control; assay type: functional; design: scale not given: the % may be the effect or the level left
Fusarium verticillioides [25] = test: Antifungal activity against Fusarium verticillioides assessed as reduction in colony diameter at 10 to 160 g/l incubated for 15 min followed by compound washout measured after 7 days in presence of surfactant APSA 80 relative to control; assay type: functional; design: scale not given: the % may be the effect or the level left
Colletotrichum musae [26] = test: Antifungal activity against Colletotrichum musae assessed as reduction in colony diameter at 10 to 160 g/l incubated for 15 min followed by compound washout measured after 7 days in presence of surfactant APSA 80 relative to control; assay type: functional; design: scale not given: the % may be the effect or the level left
Thielaviopsis paradoxa [27] = test: Antifungal activity against Ceratocystis paradoxa assessed as reduction in colony diameter at 10 to 160 g/l incubated for 15 min followed by compound washout measured after 7 days in presence of surfactant APSA 80 relative to control; assay type: functional; design: scale not given: the % may be the effect or the level left
Lasiodiplodia theobromae [28] = test: Antifungal activity against Lasiodiplodia theobromae assessed as reduction in colony diameter at 10 to 160 g/l incubated for 15 min followed by compound washout measured after 7 days in presence of surfactant APSA 80 relative to control; assay type: functional; design: scale not given: the % may be the effect or the level left
Colletotrichum musae [29] = test: Growth inhibition of Colletotrichum musae assessed as concentration required for inhibition of mycelial growth incubated for 15 min followed by compound washout measured after 7 days in presence of surfactant APSA 80; assay type: functional
Musa acuminata AAA Group [30] = test: Phytotoxicity against Musa acuminata AAA Group (Cavendish banana) assessed as skin burn incubated for 15 min followed by compound washout measured after 1 to 3 weeks in presence of surfactant APSA 80 relative to control; assay type: organism-based; settings: in vivo
Musa acuminata AAA Group [31] = test: Phytotoxicity against Musa acuminata AAA Group (Cavendish banana) assessed as discoloration incubated for 15 min followed by compound washout measured after 1 to 3 weeks in presence of surfactant APSA 80 relative to control; assay type: organism-based; settings: in vivo

| Structure (SMILES) | Activity (Lasiodiplodia theobromae [1]) | Activity (Lasiodiplodia theobromae [2]) | Activity (Fusarium verticillioides [3]) | Activity (Fusarium verticillioides [4]) | Activity (Fusarium verticillioides [5]) | Activity (Colletotrichum musae [6]) | Activity (Thielaviopsis paradoxa [7]) | Activity (Lasiodiplodia theobromae [8]) | Activity (Fusarium verticillioides [9]) | Activity (Colletotrichum musae [10]) | Activity (Thielaviopsis paradoxa [11]) | Activity (Lasiodiplodia theobromae [12]) | Activity (Fusarium verticillioides [13]) | Activity (Colletotrichum musae [14]) | Activity (Thielaviopsis paradoxa [15]) | Activity (Lasiodiplodia theobromae [16]) | Activity (Fusarium verticillioides [17]) | Activity (Colletotrichum musae [18]) | Activity (Thielaviopsis paradoxa [19]) | Activity (Lasiodiplodia theobromae [20]) | other results |
| --- | --- | --- | --- | --- | --- | --- | --- | --- | --- | --- | --- | --- | --- | --- | --- | --- | --- | --- | --- | --- | --- |
| O=C([O-])O.[Na+] [SODIUM BICARBONATE] | 150 g/L | 100 g/L | 12% | 58% | 0% | 0% | 0% | 0% | 25% | 25% | 25% | 25% | 0% | 0% | 0% | 0% | 0% | 0% | 0% | 0% | Activity (Fusarium verticillioides [21]): 0%; Activity (Colletotrichum musae [22]): 18%; Activity (Thielaviopsis paradoxa [23]): 36%; Activity (Lasiodiplodia theobromae [24]): 46%; Activity (Fusarium verticillioides [25]): 50%; Activity (Colletotrichum musae [26]): 80%; Activity (Thielaviopsis paradoxa [27]): 76%; Activity (Lasiodiplodia theobromae [28]): 72% |
| O=C([O-])[O-].[Na+].[Na+] [SODIUM CARBONATE] | 150 g/L | 40 g/L | 65% | 35% | 25% | 25% | 25% | 25% | 0% | 0% | 0% | 0% | 0% | 0% | 0% | 0% | 0% | 0% | 0% | 0% | Activity (Colletotrichum musae [29]): 80 g/L; Activity (Musa acuminata AAA Group [30]): Toxic; Activity (Musa acuminata AAA Group [31]): Toxic; Activity (Fusarium verticillioides [21]): 29%; Activity (Colletotrichum musae [22]): 40%; Activity (Thielaviopsis paradoxa [23]): 63%; Activity (Lasiodiplodia theobromae [24]): 54%; Activity (Fusarium verticillioides [25]): 75%; Activity (Colletotrichum musae [26]): 87%; Activity (Thielaviopsis paradoxa [27]): 85%; Activity (Lasiodiplodia theobromae [28]): 91% |
